Experimental data as given in patent US11274129B2, “Methods for protein tyrosine phosphorylation profiling with variant SH2 domains” (priority 2016, dated 2022).
Where a chain is given by its changes, count along the chain named.

B1: TrM Fyn SH2 domain: variant human Fyn SH2 domain with Thr181Val, Ser186Ala and Lys204Leu (protein)
chain: APVDSIQAEEWYFGKLGRKDAERQLLSFGNPRGTFLIRESETVKGAYALSIRDWDDMKGDHVKHYLIRKLDNGGYYITTRAQFETLQQLVQHYSERAAGLCCRLVVPCHKG
modifications: SH2 protein domain; TrM human Fyn SH2 domain
notes: variant human Fyn SH2 domain with Thr181Val, Ser186Ala and Lys204Leu
B2: wild-type Fyn SH2 domain: wild-type human Fyn SH2 domain (protein)
chain: B1 chain with V43T, A48S, L66K
modifications: SH2 protein domain; Wild-type human Fyn SH2 domain
B3: QuadM Src SH2: TrM human Src SH2 domain variant with additional mutation Thr218Trp in its specificity-binding pocket; His6-tagged form SEQ ID NO: 13 (protein)
chain: DSIQAEEWYFGKITRRESERLLLNAENPRGTFLVRESETVKGAYALSVSDFDNAKGLNVKHYLIRKLDSGGFYIWSRTQFNSLQQLVAYYSKHADGLCHRLTTVCPTSK
modifications: SH2 protein domain; QuadM human Src SH2 domain

Experiments:
[1] = system: BT-474 cells; test: Cell growth inhibition assay (CellTiter 96 AQueous One Solution Cell Proliferation Assay); type: cell-based, human; settings: single inhibitor at different concentrations (FIG. 11A)
Method: (§1) Cell growth inhibition assays were performed with the CellTiter 96 AQueous One Solution Cell Proliferation Assay (Promega) according to the manufacturer's recommendations.

[2] = system: MDA-MB-231 cells; test: as above; type: cell-based, human; settings: single inhibitor at different concentrations (FIG. 11A)
Method: as §1

[3] = system: SK-BR-3 cells; test: as above; type: cell-based, human; settings: single inhibitor at different concentrations (FIG. 11A)
Method: as §1

[4] = system: MCF-7 cells; test: as above; type: cell-based, human; settings: single inhibitor at different concentrations (FIG. 11A)
Method: as §1

[5] = molecular target: pTyr-including peptide found in the sequence of the receptor tyrosine kinase EGFR (Homo sapiens, UniProt P06241, K204L/S186A/T181V); settings: read-out: equilibrium dissociation constant (Kd); cited from earlier work
[6] = system: pTyr-including peptide found in the sequence of the receptor tyrosine kinase EGFR; test: Binding of wild-type and TrM Fyn SH2 domain to EGFR pTyr peptide
From the text: The relative affinity of a variant SH2 domain, including a SH2 Superbinder, can be readily assessed compared to the affinity of the relevant parent SH2 domain, using binding assays known in the art, including as described in Kaneko, T. et al., “SH2 Superbinders act as antagonists of cell signaling”, (2012) Sci. Signal. 5: ra68; and U.S. patent application Ser. No. 14/388,592.

[7] = molecular target: pTyr-including peptide found in the sequence of the receptor tyrosine kinase EGFR (Homo sapiens, UniProt P06241); settings: cited from earlier work
[8] = system: pTyr-including peptides from pervanadate-treated Jurkat cells; test: Enrichment of pTyr-including peptides from pervanadate-treated Jurkat cells by affinity reagents, 1D LC-MS/MS; parameters: species or system human; settings: 3 mg Jurkat peptides
Method: Experiments were conducted to determine the relative efficacy of the variant Src SH2 domains and commonly used anti-pTyr antibodies as affinity reagents for pTyr-including peptides from biological samples. His6/GST-tagged TrM Src SH2 domain (SEQ ID NO: 11) and His6-tagged QuadM Src SH2 domain (SEQ ID NO: 13), as well as anti-pTyr antibodies, were prepared in functionally-equivalent molar amounts by using half the molar amount of the antibodies relative to the SH2 domain variants given that each antibody molecule has two binding sites for its antigen.
The first experiment tested the relative ability of the following affinity reagents to extract pTyr-including peptides from a peptide mixture prepared from Jurkat cells: a His6/GST-tagged TrM Src SH2 (SEQ ID NO: 11), a His6-tagged QuadM Src SH2 (SEQ ID NO: 13), the anti-pTyr antibody 4G10 (agarose conjugate, obtained from Millipore), and a mixture of commercially-available anti-pTyr antibodies. […] The two SH2 affinity reagents were also tested at a 30× amount; the antibodies were not tested at a 30× amount due to the prohibitive cost of doing so. The purified SH2 affinity reagents were prepared as described in Example 1. The antibody mixture contained 4G10 (as above), PY99 (obtained from Santa Cruz Biotechnology), and P-Tyr-100 (slurry of PTMScan® Phospho-Tyrosine Mouse mAb, obtained from Cell Signaling Technology). Since the concentration of P-Tyr-100 is unknown, the amount was used as recommended by the vendor (i.e., 4 μL for 1 mg peptide digest).
FIG. 2A presents a schematic of the experimental design. Each amount of His6-tagged SH2 domain variant or antibody was subjected to a binding experiment with 3 mg of a peptide mixture prepared from pervanadate-treated Jurkat cells.
Jurkat cells (obtained from ATCC) were cultured in a humidified atmosphere of 5% CO2 at 37° C. in Roswell Park Memorial Institute 1640 medium (RPMI-1640) supplemented with 10% bovine serum and 100 U/mL of streptomycin and penicillin.
The cells were again collected by centrifugation. The cell pellets were gently homogenized in an ice-cold lysis buffer containing 8 M urea, 50 mM tris(hydroxymethyl)aminomethane (Tris)-HCl (pH 7.4), 2% protease inhibitor cocktail (v/v, obtained from Sigma-Aldrich), 1% Triton X-100 (v/v), 1 mM NaF, and 1 mM Na3VO4, followed by sonication at 400 W for 120 s. After centrifugation at 25,000 g for 1 h, proteins were precipitated in ice-cold acetone/ethanol/acetic acid (50/50/0.1, V/V/V) solution. Subsequently, the proteins were diluted in reducing buffer containing 100 mM triethylammonium bicarbonate (TEAB) buffer (pH 8.2) and 8 M urea, and the final protein concentration was determined by Bradford assay. The protein suspension was reduced in 10 mM dithiothreitol (DTT) at 37° C. for 2 h, and it was then alkylated in 20 mM iodoacetamide (IAA) in darkness at room temperature for another 30 min. Trypsin digestion was performed at 37° C. overnight with an enzyme-to-protein ratio of 1/25 (w/w). The resulting peptide mixture was stored at −80° C. for further analysis.
Desalted Jurkat peptides (30 mg) were dissolved in ice-cold immunoaffinity purification (IAP) buffer and then split into 10 aliquots with 3 mg of Jurkat peptides each. Binding experiments were performed with the amounts of antibody (1×, 5×) or SH2 domain variant (1×, 5×, 30×) set out in Table 1 and FIG. 2A.
For antibody-based enrichment, 4G10 or the antibody mixture was incubated with the sample at 4° C. overnight while rotating. The beads were washed three times with ice-cold IAP buffer and twice with ice-cold water. To release the bound peptides, the beads were eluted twice with 200 μL 0.15% trifluoroacetic acid (TFA) for 15 min at room temperature.
For SH2-based enrichment, Ni-NTA beads containing the purified SH2 proteins were washed extensively in twenty column volumes of PBS buffer (pH 7.0) containing 20 mM imidazole. […] The washed beads were incubated with the peptide mixture at 4° C. overnight while rotating. […]

Molecule	proliferation relative to no drug exposure [1]	proliferation relative to no drug exposure [2]	proliferation relative to no drug exposure [3]	proliferation relative to no drug exposure [4]	further results
CCN1CCN(Cc2ccc(C(=O)Nc3ccc(C)c(Oc4ccc5c(c4)CC(=O)N5)c3)cc2C(F)(F)F)CC1 [DDR1-IN-1]	neither inhibitor had an effect	neither inhibitor had an effect	neither inhibitor had an effect	–	–
CNC(=O)c1c(F)cccc1Nc1nc(Nc2cc3c(cc2OC)CCN3C(=O)CN(C)C)nc2[nH]ccc12 [GSK1838705]	neither inhibitor had an effect	neither inhibitor had an effect	neither inhibitor had an effect	inhibited the proliferation of MCF-7 in a dose-dependent manner	–
CS(=O)(=O)CCNCc1ccc(-c2ccc3ncnc(Nc4ccc(OCc5cccc(F)c5)c(Cl)c4)c3c2)o1 [lapatinib]	sensitive	insensitive	sensitive	insensitive	–
B1	–	–	–	–	Kd [5]: 0.0097 µM; fold tighter binding than wild-type Fyn SH2 domain [6]: around 380 fold
B2	–	–	–	–	Kd [7]: 3.7 µM
B3	–	–	–	–	Number of pTyr sites identified ([8]; 0.375 nmol (1x) pTyr-binding sites): 679; Number of pTyr sites identified ([8]; 1.875 nmol (5x) pTyr-binding sites): 938; Number of pTyr sites identified ([8]; 11.25 nmol (30x) pTyr-binding sites): 1186
